Results from patent publication US20090012088A1 (priority 2005, published 2009).
“Also recorded” adds a separate entry of the source.

Assays:
[1] = system: primary dopaminergic neurons from the midbrain of embryonic rats; experiment: Protection of primary dopaminergic neurons from rotenone (TH/MAP2 immunocytochemistry); assay type: cell-based, rat; conditions: 100 nM rotenone, 48 h, % TH+ of MAP2+ cells
Method: With in vitro PARG inhibition, cell permeability, a structure-activity-relationship, and protection in cell culture models established, the protective properties of PIP-1 are evaluated in cultures of primary dopaminergic neurons taken from the midbrain of embryonic rats. After isolation, these neurons are treated with 100 nM rotenone and a range of PIP-1 concentrations. Cells are stained with antibodies to MAP2 and tyrosine hydroxylase (TH) to determine the proportion of dopaminergic neurons remaining.
Preparation of Primary Mesencephalic Cultures: Primary Midbrain Cultures are prepared using a modified version of a previously described protocol^2. All of the procedures involving animal handling are reviewed and approved by the Purdue Animal Care and Use Committee. […]
Treatment of primary cultures with rotenone and PIP-1: AraC-treated primary cultures are incubated in fresh media for 72 h. […] After 48 h, the cells are analyzed immunocytochemically as described below.
Immunocytochemistry: Primary cells are fixed in 4% (w/v) paraformaldehyde in PBS for 30 min. […] MAP2- and TH-immunoreactive primary neurons are counted in 10 randomly chosen observation fields for each experimental condition using a Nikon TE2000-U inverted fluorescence microscope at a total magnification of 200×. The data are expressed as the percentage of MAP2-positive neurons that are also TH-positive. […]

[2] = system: NAD^+ depletion in HL-60 cell lysate; experiment: Whole cell assay screen: NAD+ depletion in H2O2-activated HL-60 cell lysate; assay type: cell-based
Method: To identify a non-toxic, non-DNA intercalating, cell permeable small molecule inhibitor of PARG, a high-throughput screen is devised. Given the severe challenges in isolating enough of the PAR substrate for an in vitro screen directly for PARG inhibition, we develop a primary screen that utilizes cell lysates and, in particular, mammalian cell lysates. In this assay, HL-60 cells are treated with H2O2 to damage their DNA (which activates PARP-1) and then lyse the cells. In individual wells of a 384-well plate, this cell lysate is incubated with 22,000 different small molecules from an in-house compound collection; these compounds are either purchased (from ChemBridge Corp.) or collected from various sources at the University of Illinois. (28) NAD^+ levels are measured using a fluorescent method based on the chemical conversion of NAD^+ to a fluorescent product (29, 30) (FIG. 14A). The amount of NAD^+ consumed in each well is monitored, and any compounds that prevent NAD^+ consumption are classified “hits” in this primary screen.
Library screen: 12.5 μL of Lysing PARP buffer (50 mM Tris, 10 mM MgCl2, pH 8.0, 1% Triton X-100) containing 100 μM NAD^+ is added to each well of a 384-well plate. Library compounds at 10 mM in DMSO are transferred using a 384-well pin transfer device that delivers 0.1 μL. HL-60 cells are spun down at 200 g for 5 min. and resuspended in Lysing PARP buffer to a concentration of 8×10^6 cells/mL. 10 μL of a 30% H2O2 solution is added per mL of cells. 12.5 μL of the activated cell lysate is added to the plates. The plates are incubated for 60 min. at 37° C. The concentration of NAD^+ is then determined using a fluorescent assay^1. 10 μL of a 2 M KOH solution and 10 μL of a 20% acetophenone solution (in ethanol) is added to each well. The plate is then incubated at 4° C. for 10 min. 45 μL of a 88% formic acid solution was added to each well. The plate was then incubated for 5 min. in a 110° C. oven. Once the plate cools, the fluorescent intensity of each well is determined on a Criterion Analyst AD (Molecular Devices) with an excitation of 360 nm and an emission of 445 nm.

SMILES	Protection of dopaminergic neurons from rotenone induced cell death [1]	Inhibition of NAD+ depletion in the whole cell assay [2]
CN(C)c1cnn(-c2ccccc2)c(=O)c1N [PIP-1, 4-Amino-5-dimethylamino-2-phenyl-2H-pyridazin-3-one]	considerable protection; also recorded: protects dopaminergic neurons from rotenone induced cell death	inhibit NAD^+ depletion
Nc1c(Cl)cnn(-c2ccccc2)c1=O [compound 5, 4-Amino-5-chloro-2-phenyl-2H-pyridazin-3-one]	no protection; also recorded: does not significantly protect	do not inhibit NAD^+ depletion
